Results published in US8883963B2 (Cadila Healthcare Limited, priority 2007, dated 2014).
Starred links: 1 amine or outer side, 2 acyl side, 3 side chain; linkers in the order of their positions; H or OH if unused. Non-standard residues stand in square brackets, D forms with d. Residues, ends and D or L forms follow the SMILES beside them. ξ: configuration not given here. *: point of attachment. X9 = CCc1cc(OC)ccc1-c1ccc(CC(NC(=S)[C@H](CC(=O)O)N*)C(=S)NC(CCCc2ccccc2F)C(N)=O)cc1; ξBip(2'-Et-4'-OMe) = CCc1cc(OC)ccc1-c1ccc(CC(N)C(=O)O)cc1; X6 = O=C(C(CCCc1ccc(Cl)cc1Cl)N[*:1])[*:2]; X10 = O=C(C(CCCc1ccc(F)cc1F)N[*:1])[*:2]; ξbishPhe(2-F) = NC(CCCc1ccccc1F)C(=O)O; ξαMePhe(2-F) = CC(N)(Cc1ccccc1F)C(=O)O; aThr = C[C@H](O)[C@H](N)C(=O)O; ξhhPhe = NC(CCCc1ccccc1)C(=O)O; ξAbu(4-CN) = N#CCCC(N)C(=O)O; Ac5c = NC1(C(=O)O)CCCC1; Aib = CC(C)(N)C(=O)O

Columns and labels:
[1] = molecular target: T1, human glucagon receptor (Homo sapiens, UniProt P47871); experiment: In vitro human glucagon antagonist activity (inhibition of cAMP production) in CHO/human glucagon R cells; format: cell-based; conditions: with saturated concentration of glucagon peptide
T1 construct: The full-length cDNA was cloned in pcDNA3.1 (Invitrogen); expressed in transfected cells
T1 sequence (P47871 26-477): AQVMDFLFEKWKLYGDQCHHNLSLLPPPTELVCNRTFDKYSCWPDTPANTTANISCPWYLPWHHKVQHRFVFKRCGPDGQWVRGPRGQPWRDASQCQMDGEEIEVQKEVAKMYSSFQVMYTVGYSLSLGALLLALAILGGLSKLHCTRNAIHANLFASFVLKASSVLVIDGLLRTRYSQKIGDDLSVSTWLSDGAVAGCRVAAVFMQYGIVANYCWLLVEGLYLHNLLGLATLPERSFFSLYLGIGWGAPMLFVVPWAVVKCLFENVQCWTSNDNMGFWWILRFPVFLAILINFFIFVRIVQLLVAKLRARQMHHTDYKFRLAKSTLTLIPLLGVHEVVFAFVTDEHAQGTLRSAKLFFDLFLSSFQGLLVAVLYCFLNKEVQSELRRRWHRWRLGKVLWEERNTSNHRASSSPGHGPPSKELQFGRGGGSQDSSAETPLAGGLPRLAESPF
Experimental: The CHO-K1 cells (CRL 9618) were obtained from American Type Culture Collection (Rockville, Md.). CHO cells were grown in Ham's F12 medium containing L-Glutamine (2 mM), HEPES (25 mM), NaHCO3 (1.1 g/L) and supplemented with newborn Calf Serum (NBCS; 10%), Penicillin (50 U/ml (v/v)) and Streptomycin (50 ug/ml (v/v)). Cells were split every 3 days 1:8.
The full-length cDNA was cloned in pcDNA3.1 (Invitrogen). […] Clones expressing the receptor were generated by G418 (800 μg/ml active, Sigma) selection. The stable clones were thereafter maintained at 500 ug/ml (G418). The selected clone was used between passages 9-25 for cAMP assays.
The cells were trypsinized using 2 ml of TPVG (0.25% trypsin, 0.53 mM EDTA, 1.38-mM glucose). The trypsin was inactivated using Ham's F12 medium containing 10% NBCS and the cells were suspended in 2 ml of complete medium. […] The medium was aspirated off from the 12 well plate and the cells were washed once using Ham's F12 (plain). The cells were incubated at 37° C. with 500 ul of Ham's F12+1% BSA+0.125 mM RO-20 for 30 min. […] After the incubation, the medium was removed and cells were washed once with plain Ham's F12. Subsequently, the cells were lysed by adding 500 ul of ice cold 0.1 N HCl to each well and shaking for 30 minutes at 200 rpm. The cells were then scrapped, the lysate was collected in micro centrifuge tubes and centrifuged at 12000 rpm for 10 min to remove the debris. 300 ul of supernatant from each micro-centrifuge tube was then removed into a glass tube and dried under N2 for 30 min, for cAMP estimation. The total cAMP was estimated from the sample according to the manufacturer's protocol using Cyclic AMP immunoassay kit (R&D systems, Minneapolis. MN). The remaining supernatant is used to determine the protein concentration using micro BCA (Sigma). Data is calculated as percent of control (Vehicle: water) and expressed as Mean+SD.

[2] = tested on: RIN5F (Rat Insulinoma) cells; experiment: In vitro glucose-dependent insulin secretion (RIN5F cell assay screening protocol); format: cell-based; conditions: 16.7 mM glucose load
Experimental: RIN5F (Rat Insulinoma) cells were cultured in RPMI 1640 medium supplemented with sodium pyruvate (1 mM) HEPES and Glucose (4.5 g/L) in a humidified incubator (5% CO2), at 37° C. After trypsinization, RIN5F cells were seeded at a concentration of 0.2×10^6 cells per well, in 12 well plates.
The buffer was replaced after 40 min. and the cells were incubated (37° C.) with the test peptidomimetics, at different concentration, for 30 min., both in the presence (16.7 mM) and absence (0 mM) of glucose load. The supernatant was collected and the insulin amount was measured by ultra sensitive Rat insulin ELISA kit (Crystal Chem, IL). The protein was estimated in the supernatant using Bicinchoninic Acid kit, according to the manufacturer's protocol (Sigma Aldrich, MO). The total insulin content obtained in Pico-gram (pg) was divided with the total protein (μg) in order to normalize for differences in cell density between wells.

| SMILES | Human Glucagon receptor antagonistic activity shown as inhibition of cAMP production of Glucagon peptide ([1]; 1 nM test compound) [pmol/ml/μg prt] | Human Glucagon receptor antagonistic activity shown as inhibition of cAMP production of Glucagon peptide ([1]; 10 nM test compound) [pmol/ml/μg prt] | Human Glucagon receptor antagonistic activity shown as inhibition of cAMP production of Glucagon peptide ([1]; 100 nM test compound) [pmol/ml/μg prt] | Human Glucagon receptor antagonistic activity shown as inhibition of cAMP production of Glucagon peptide ([1]; 1 μM test compound) [pmol/ml/μg prt] | Human Glucagon receptor antagonistic activity shown as inhibition of cAMP production of Glucagon peptide ([1]; 10 μM test compound) [pmol/ml/μg prt] | Insulin secretion ([2]; 0.1 nM test compd.) [pg/µg/h] | Insulin secretion ([2]; 1 nM test compd.) [pg/µg/h] | Insulin secretion ([2]; 10 nM test compd.) [pg/µg/h] |
| --- | --- | --- | --- | --- | --- | --- | --- | --- |
| CCc1cc(OC)ccc1-c1ccc(CC(NC(=O)[C@H](CC(=O)O)NC(=O)[C@H](CO)NC(=O)[C@@H](NC(=O)C(C)(Cc2ccccc2F)NC(=O)[C@@H](NC(=O)CNC(=O)[C@H](CCC(N)=O)NC(=O)C(C)(C)NC(=O)[C@@H](N)Cc2c[nH]cn2)[C@@H](C)O)[C@@H](C)O)C(=O)NC(CCCc2ccc(Cl)cc2C)C(N)=O)cc1 (single isomer, unassigned) [compound 40] | 18 ± 0.07 | 16 ± 0.01 | 12 ± 0.03 | 8 ± 0.02 | 6 ± 0.08 | 12.6 ± 0.20 | 15.9 ± 0.31 | 28.4 ± 0.11 |
| CCc1cc(OC)ccc1-c1ccc(CC(CNC(CCCc2ccccc2F)C(N)=O)NC(=O)[C@H](CC(=O)O)NC(=O)[C@H](CO)NC(=O)[C@@H](NC(=O)C(C)(Cc2ccccc2F)NC(=O)[C@@H](NC(=O)CNC(=O)C(CCC#N)NC(=O)C(C)(C)NC(=O)[C@@H](N)Cc2c[nH]cn2)[C@H](C)O)[C@H](C)O)cc1 (single isomer, unassigned) [compound 192] | 4 ± 0.09 | 2 ± 0.12 | 0 | 0 | 0 | 16.6 ± 0.41 | 22.9 ± 0.32 | 36.7 ± 0.11 |
| CCc1cc(OC)ccc1-c1ccc(CC(NC(=O)[C@H](CC(=O)O)NC(=O)[C@H](CO)NC(=O)[C@@H](NC(=O)C(C)(Cc2ccccc2F)NC(=O)[C@@H](NC(=O)CNC(=O)[C@H](CC(C(F)(F)F)C(F)(F)F)NC(=O)C(C)(C)NC(=O)[C@@H](N)Cc2c[nH]cn2)[C@@H](C)O)[C@@H](C)O)C(=O)NC(CCCc2cc(C)cc(C)c2)C(N)=O)cc1 (single isomer, unassigned) [compound 235] |  |  |  |  |  | 12.6 ± 0.25 | 15.3 ± 0.31 | 29.7 ± 0.48 |
| CCc1cc(OC)ccc1-c1ccc(CC(NC(=O)[C@H](CC(=O)O)NC(=O)[C@H](CO)NC(=O)[C@@H](NC(=O)[C@H](Cc2ccccc2)NC(=O)[C@@H](NC(=O)CNC(=O)[C@H](CCC(N)=O)NC(=O)C2(NC(=O)[C@@H](N)Cc3c[nH]cn3)CCCC2)[C@@H](C)O)[C@@H](C)O)C(=O)NC(CCCc2ccccc2)C(N)=O)cc1 (stereo partly shown) [compound 25] (H-H[Ac5c]QGTFTSD[ξBip(2'-Et-4'-OMe)][ξhhPhe]-NH2) |  |  |  |  |  | 15.6 ± 0.30 | 21.8 ± 0.11 | 35.6 ± 0.20 |
| CCc1cc(OC)ccc1-c1ccc(CC(NC(=O)[C@H](CC(=O)O)NC(=O)[C@H](CO)NC(=O)[C@@H](NC(=O)[C@H](Cc2ccccc2)NC(=O)[C@@H](NC(=O)CNC(=O)[C@H](CCC(N)=O)NC(=O)[C@H](CO)NC(=O)[C@@H](N)Cc2c[nH]cn2)[C@@H](C)O)[C@@H](C)O)C(=O)NC(CCCc2ccc(F)cc2F)C(N)=O)cc1 (stereo partly shown) [compound 46] (H-HSQGTFTSD[ξBip(2'-Et-4'-OMe)][X10]-NH2) |  |  |  |  |  | 12.7 ± 0.21 | 15.8 ± 0.33 | 29.3 ± 0.19 |
| CCc1cc(OC)ccc1-c1ccc(CC(NC(=O)[C@H](CC(=O)O)NC(=O)[C@H](CO)NC(=O)[C@@H](NC(=O)[C@H](Cc2ccccc2)NC(=O)[C@@H](NC(=O)CNC(=O)C(CCC#N)NC(=O)C(C)(C)NC(=O)[C@@H](N)Cc2c[nH]cn2)[C@@H](C)O)[C@@H](C)O)C(=O)NC(CCCc2ccc(Cl)cc2Cl)C(N)=O)cc1 (stereo partly shown) [compound 83] (H-H[Aib][ξAbu(4-CN)]GTFTSD[ξBip(2'-Et-4'-OMe)][X6]-NH2) |  |  |  |  |  | 12.3 ± 0.33 | 14.1 ± 0.36 | 28.0 ± 0.16 |
| CCc1cc(OC)ccc1-c1ccc(CC(NC(=O)[C@H](CC(=O)O)NC(=O)[C@H](CO)NC(=O)[C@@H](NC(=O)C(C)(Cc2ccccc2F)NC(=O)[C@@H](NC(=O)CNC(=O)[C@H](CCC(N)=O)NC(=O)C(C)(C)NC(=O)[C@@H](N)Cc2c[nH]cn2)[C@@H](C)O)[C@@H](C)O)C(=O)NC(CCCc2ccccc2F)C(N)=O)cc1 (stereo partly shown) [compound 85] (H-H[Aib]QGT[ξαMePhe(2-F)]TSD[ξBip(2'-Et-4'-OMe)][ξbishPhe(2-F)]-NH2) |  |  |  |  |  | 11.9 ± 0.17 | 14.2 ± 0.13 | 27.6 ± 0.16 |
| CCc1cc(OC)ccc1-c1ccc(CC(NC(=O)[C@H](CC(=O)O)NC(=O)[C@H](CO)NC(=O)[C@@H](NC(=O)C(C)(Cc2ccccc2F)NC(=O)[C@@H](NC(=O)CNC(=O)[C@H](CCC(N)=O)NC(=O)C(C)(C)NC(=O)[C@@H](N)Cc2c[nH]cn2)[C@@H](C)O)[C@@H](C)O)C(=O)NC(CCCc2ccc(F)cc2F)C(N)=O)cc1 (stereo partly shown) [compound 86] (H-H[Aib]QGT[ξαMePhe(2-F)]TSD[ξBip(2'-Et-4'-OMe)][X10]-NH2) |  |  |  |  |  | 12.3 ± 0.33 | 14.8 ± 0.16 | 28.1 ± 0.22 |
| CCc1cc(OC)ccc1-c1ccc(CC(NC(=O)[C@H](CC(=O)O)NC(=O)[C@H](CO)NC(=O)[C@@H](NC(=O)C(C)(Cc2ccccc2F)NC(=O)[C@@H](NC(=O)CNC(=O)[C@H](CCC(N)=O)NC(=O)C(C)(C)NC(=O)[C@@H](N)Cc2c[nH]cn2)[C@H](C)O)[C@@H](C)O)C(=O)NC(CCCc2ccccc2)C(N)=O)cc1 (stereo partly shown) [compound 109] (H-H[Aib]QG[aThr][ξαMePhe(2-F)]TSD[ξBip(2'-Et-4'-OMe)][ξhhPhe]-NH2) |  |  |  |  |  | 12.6 ± 0.25 | 15.3 ± 0.31 | 29.7 ± 0.48 |
| CCc1cc(OC)ccc1-c1ccc(CC(NC(=O)[C@H](CC(=O)O)NC(=O)[C@H](CO)NC(=O)[C@@H](NC(=O)C(C)(Cc2ccccc2F)NC(=O)[C@@H](NC(=O)CNC(=O)[C@H](CCC(N)=O)NC(=O)C(C)(C)NC(=O)[C@@H](N)Cc2c[nH]cn2)[C@H](C)O)[C@@H](C)O)C(=O)NC(CCCc2ccccc2F)C(N)=O)cc1 (stereo partly shown) [compound 111] (H-H[Aib]QG[aThr][ξαMePhe(2-F)]TSD[ξBip(2'-Et-4'-OMe)][ξbishPhe(2-F)]-NH2) |  |  |  |  |  | 16.2 ± 0.20 | 22.2 ± 0.20 | 36.1 ± 0.31 |
| CCc1cc(OC)ccc1-c1ccc(CC(NC(=O)[C@H](CC(=O)O)NC(=O)[C@H](CO)NC(=O)[C@@H](NC(=O)C(C)(Cc2ccccc2F)NC(=O)[C@@H](NC(=O)CNC(=O)[C@H](CCC(N)=O)NC(=O)C(C)(C)NC(=O)[C@@H](N)Cc2c[nH]cn2)[C@H](C)O)[C@H](C)O)C(=O)NC(CCCc2ccccc2)C(N)=O)cc1 (stereo partly shown) [compound 113] (H-H[Aib]QG[aThr][ξαMePhe(2-F)][aThr]SD[ξBip(2'-Et-4'-OMe)][ξhhPhe]-NH2) |  |  |  |  |  | 15.6 ± 0.31 | 21.8 ± 0.16 | 35.6 ± 0.28 |
| CCc1cc(OC)ccc1-c1ccc(CC(NC(=S)[C@H](CC(=O)O)NC(=O)[C@H](CO)NC(=O)[C@@H](NC(=O)C(C)(Cc2ccccc2F)NC(=O)[C@@H](NC(=O)CNC(=O)[C@H](CCC(N)=O)NC(=O)C(C)(C)NC(=O)[C@H](Cc2c[nH]cn2)NC(C)=O)[C@H](C)O)[C@H](C)O)C(=S)NC(CCCc2ccccc2F)C(N)=O)cc1 (stereo partly shown) [compound 175] (Ac-H[Aib]QG[aThr][ξαMePhe(2-F)][aThr]S-X9) |  |  |  |  |  | 15.6 ± 0.33 | 21.8 ± 0.16 | 35.6 ± 0.26 |
